# Measurements published in paper PMC7845594, “Novel Immune Modulators Enhance Caenorhabditis elegans Resistance to Multiple Pathogens” (mSphere, 2021).
# Tested on: C. elegans transcriptome
# Test: Transcriptome profiling (Affymetrix microarrays), differentially expressed genes
# Assay type: in vivo, Caenorhabditis elegans
# Description: To gain additional insight into the effect of LK molecules on C. elegans, young-adult, wild-type worms were treated with each drug at 100 µM for 8 h in the absence of pathogen. RNA was collected, and transcriptome profiling was performed.
# Data were determined using Affymetrix microarrays, as described in Materials and Methods. Download Table S3, XLSX file, 0.07 MB.
# Transcriptome profiling was performed on ∼6,000 wild-type, young adult worms incubated with either LK molecules or DMSO for 8 h. RNA isolation was performed using TRIzol extraction, followed by cleanup using RNeasy columns according to the manufacturer’s protocol. Each condition was analyzed in triplicate. Microarray data have been deposited in the GEO database, accession number GSE137516. […] Clustering and generation of the heat map was performed using Cluster 3.0 ([98]) and Treeview ([99]), respectively. Fold change of genes were normalized to average fold change of that gene over all clustered conditions. Genes and conditions were clustered using Euclidean distance and average linkages. […] Microarray data for non-LK molecules were collected from GEO omnibus. WormEXP was used as a secondary method for confirming statistical significance of potential pathways stimulated by each of the LK molecules ([100]). Gene ontologies were generated using DAVID ([101], [102]).
# [1] = Downregulated genes, Affy_ID 171867_x_at
structure (smiles),measurement,setting,value
CNC(=O)Oc1c(Br)cc2sc(=O)oc2c1Br [LK34],Fold Change,"Affy_ID 171867_x_at, listed under genes C09B9.6, F36H12.7, K07F5.1, R05F9.13, R13H9.2, R13H9.4, T13F2.10, T13F2.11, Y59E9AR.1, Y59E9AR.7, ZK354.1, downregulated genes",0.2366
same,"Fold Change, gene ZK354.1",[1],0.2366
same,"Fold Change, gene ZK354.10",[1],0.2366
same,"Fold Change, gene ZK354.11",[1],0.2366
same,"Fold Change, gene ZK354.4",[1],0.2366
same,"Fold Change, gene ZK354.5",[1],0.2366
same,"Fold Change, gene ZK525.1","Downregulated genes, Affy_ID 172214_x_at",0.3205
same,"Fold Change, gene ZK484.8","Downregulated genes, Affy_ID 172381_x_at",0.3874
same,"Fold Change, gene ZK546.3","Downregulated genes, Affy_ID 172798_x_at",0.1968
same,"Fold Change, gene ZK131.7","Downregulated genes, Affy_ID 172871_x_at",0.3375
same,"Fold Change, gene ZK546.6","Downregulated genes, Affy_ID 172900_x_at",0.1968
same,"Fold Change, gene ZK669.2","Downregulated genes, Affy_ID 179491_at",0.229
same,"Fold Change, gene ZK550.2","Downregulated genes, Affy_ID 179513_at",0.3085
same,"Fold Change, gene ZK484.5","Downregulated genes, Affy_ID 182193_at",0.3399
same,"Fold Change, gene ZK593.1","Downregulated genes, Affy_ID 189095_at",0.4248
same,"Fold Change, gene ZK666.7","Downregulated genes, Affy_ID 194066_s_at",0.02705
same,Fold Change,"Gene C05C12.3, Affy_ID 183355_s_at, downregulated genes",0.4055
same,Fold Change,"Gene M163.1, Affy_ID 177298_at, downregulated genes",0.426
same,Fold Change,"Gene R01E6.3, Affy_ID 189628_at, downregulated genes",0.3684
same,Fold Change,"Gene R03E9.1, Affy_ID 193723_s_at, downregulated genes",0.2017
same,Fold Change,"Gene R03E9.3, Affy_ID 174840_s_at, downregulated genes",0.4768
same,Fold Change,"Gene R05F9.3, Affy_ID 172725_x_at, downregulated genes",0.4019
same,Fold Change,"Gene R05F9.8, Affy_ID 172724_x_at, downregulated genes",0.2519
same,Fold Change,"Gene R05G6.10, Affy_ID 192058_at, downregulated genes",0.3616
same,Fold Change,"Gene R12C12.1, Affy_ID 190616_at, downregulated genes",0.2442
same,Fold Change,"Gene R12E2.9, Affy_ID 180698_s_at, downregulated genes",0.3881
same,Fold Change,"Gene R52.3, Affy_ID 177369_at, downregulated genes",0.4244
same,Fold Change,"Gene T01C3.4, Affy_ID 188106_at, downregulated genes",0.02189
same,Fold Change,"Gene T02B11.3, Affy_ID 174051_s_at, downregulated genes",0.4182
same,Fold Change,"upregulated gene T13H2.4, Affy_ID 183082_s_at",2.522
same,Fold Change,"upregulated gene T14F9.3, Affy_ID 173287_s_at",3.284
same,Fold Change,"upregulated gene T14G8.1, Affy_ID 193596_s_at",3.752
same,Fold Change,"upregulated gene T15B7.3, Affy_ID 188456_at",3.308
same,Fold Change,"upregulated gene T19B10.2, Affy_ID 181715_s_at",5.383
same,Fold Change,"upregulated gene T20F7.6, Affy_ID 173076_s_at",3.038
same,Fold Change,"upregulated gene T21C12.2, Affy_ID 193009_at",2.072
same,Fold Change,"upregulated gene T21E3.3, Affy_ID 173760_s_at",2.777
same,Fold Change,"upregulated gene T22B7.3, Affy_ID 181552_at",4.555
same,Fold Change,"upregulated gene T22B7.7, Affy_ID 173688_s_at",13.7199
same,Fold Change,"upregulated gene T22F3.3, Affy_ID 176676_s_at",2.752
same,Fold Change,"upregulated gene T24B8.3, Affy_ID 175022_s_at",3.173
same,Fold Change,"upregulated gene T24B8.5, Affy_ID 178297_at",134.612
same,Fold Change,"upregulated gene T24C4.4, Affy_ID 182815_at",2.661
same,Fold Change,"upregulated gene T25G12.5, Affy_ID 174581_s_at",2.002
same,Fold Change,"upregulated gene T26C5.1, Affy_ID 190852_at",2.137
same,Fold Change,"upregulated gene T27A3.2, Affy_ID 192961_at",2.203
same,Fold Change,"upregulated gene T27E4.3, Affy_ID 172901_x_at",16.0293
same,Fold Change,"upregulated gene T28D9.3, Affy_ID 187493_at",2.783
same,Fold Change,"upregulated gene VZK822L.1, Affy_ID 187997_s_at",2.806
same,Fold Change,"upregulated gene W01F3.2, Affy_ID 173274_s_at",7.505
same,Fold Change,"upregulated gene W02A2.7, Affy_ID 193943_at",2.753
same,Fold Change,"upregulated gene W03C9.7, Affy_ID 194039_s_at",2.373
same,Fold Change,"upregulated gene W03F8.10, Affy_ID 174843_at",5.242
same,Fold Change,"upregulated gene W03F9.4, Affy_ID 189587_s_at",16.8516
same,Fold Change,"upregulated gene W04A8.4, Affy_ID 178654_s_at",22.7121
same,Fold Change,"upregulated gene W04B5.1, Affy_ID 180966_s_at",3.157
same,Fold Change,"upregulated gene W04B5.3, Affy_ID 173153_s_at",2.678
same,Fold Change,"upregulated gene W05G11.6, Affy_ID 192581_s_at",4.517
same,Fold Change,"upregulated gene W05H9.1, Affy_ID 179806_at",2.462
same,Fold Change,"upregulated gene W06D4.1, Affy_ID 172046_x_at",3.704
same,Fold Change,"upregulated gene W06D12.3, Affy_ID 192357_at",7.111
same,Fold Change,"upregulated gene W06H8.1, Affy_ID 185746_s_at",2.211
same,Fold Change,"upregulated gene W09C3.1, Affy_ID 192187_s_at",2.464
same,Fold Change,"upregulated gene W09D10.2, Affy_ID 188190_at",2.479
same,Fold Change,"upregulated gene Y17G7B.5, Affy_ID 191321_s_at",2.063
same,Fold Change,"upregulated gene Y19D10A.9, Affy_ID 180592_s_at",3.023
same,Fold Change,"upregulated gene Y22F5A.4, Affy_ID 182989_at",2.493
same,Fold Change,"upregulated gene Y22F5A.5, Affy_ID 183028_s_at",6.999
same,Fold Change,"upregulated gene Y25C1A.13, Affy_ID 192131_s_at",2.041
same,Fold Change,"upregulated gene Y37A1B.5, Affy_ID 182849_at",3.394
same,Fold Change,"upregulated gene Y37D8A.3, Affy_ID 182387_at",3.237
same,Fold Change,"upregulated gene Y37D8A.6, Affy_ID 181665_at",3.132
same,Fold Change,"upregulated gene Y37E3.16, Affy_ID 173045_at",3.373
same,Fold Change,"upregulated gene Y38E10A.14, Affy_ID 175449_s_at",19.1307
same,Fold Change,"upregulated gene Y38F1A.9, Affy_ID 183759_at",3.202
same,Fold Change,"upregulated gene Y39G10AR.10, Affy_ID 176486_at",3.752
same,Fold Change,"upregulated gene Y40B10A.6, Affy_ID 176851_at",72.4303
same,Fold Change,"upregulated gene Y41C4A.16, Affy_ID 194230_x_at",2.854
same,Fold Change,"upregulated gene Y41D4B.10, Affy_ID 176055_at",12.5937
same,Fold Change,"upregulated gene Y41D4B.16, Affy_ID 176044_at",3.687
same,Fold Change,"upregulated gene Y42G9A.3, Affy_ID 184843_at",2.448
same,Fold Change,"upregulated gene Y45F3A.3, Affy_ID 190484_at",2.142
same,Fold Change,"upregulated gene Y45F10C.4, Affy_ID 186062_at",3.365
same,Fold Change,"upregulated gene Y45G12C.2, Affy_ID 187084_at",44.4121
same,Fold Change,"upregulated gene Y47D3B.10, Affy_ID 175803_at",16.792
same,Fold Change,"upregulated gene Y47H9C.5, Affy_ID 191065_s_at",3.655
same,Fold Change,"upregulated gene Y51H7C.1, Affy_ID 186349_at",10.7753
same,Fold Change,"upregulated gene Y53C10A.5, Affy_ID 185387_s_at",2.3
same,Fold Change,"upregulated gene Y53F4B.33, Affy_ID 191337_at",3.746
same,Fold Change,"upregulated gene Y53G8B.2, Affy_ID 184714_s_at",12.3167
same,Fold Change,"upregulated gene Y55B1AR.1, Affy_ID 187047_at",6.102
same,Fold Change,"upregulated gene Y57A10A.23, Affy_ID 187073_at",4.099
same,Fold Change,"upregulated gene Y57G7A.1, Affy_ID 184451_at",2.494
same,Fold Change,"upregulated gene Y66D12A.24, Affy_ID 175124_at",2.157
same,Fold Change,"upregulated gene Y73F4A.1, Affy_ID 183741_s_at",2.361
same,Fold Change,"upregulated gene Y77E11A.2, Affy_ID 187013_at",2.74
same,Fold Change,"upregulated gene Y105C5B.15, Affy_ID 186799_at",3.153
same,Fold Change,"upregulated gene Y105C5B.9, Affy_ID 185162_at",4.733
same,Fold Change,"upregulated gene Y106G6D.6, Affy_ID 185498_at",6.605
same,Fold Change,"upregulated gene Y110A2AL.4, Affy_ID 175367_s_at",14.9078
same,Fold Change,"upregulated gene ZC64.2, Affy_ID 177670_at",2.001
same,Fold Change,"upregulated gene ZC155.1, Affy_ID 173222_s_at",2.272
same,Fold Change,"upregulated gene ZC455.4, Affy_ID 191057_s_at",5.011
same,Fold Change,"upregulated gene ZK6.10, Affy_ID 175170_s_at",5.465
same,Fold Change,"upregulated gene ZK455.1, Affy_ID 193891_at",2.692
same,Fold Change,"upregulated gene ZK512.7, Affy_ID 186714_s_at",3.907
same,Fold Change,"upregulated gene ZK550.6, Affy_ID 186811_s_at",2.631
same,Fold Change,"upregulated gene ZK637.13, Affy_ID 173475_s_at",3.509
same,Fold Change,"upregulated gene ZK688.6, Affy_ID 176040_s_at",2.439
same,Fold Change,"upregulated gene ZK770.3, Affy_ID 180366_s_at",3.016
same,Fold Change,"upregulated gene ZK829.9, Affy_ID 189819_s_at",5.03
same,Fold Change,"upregulated gene ZK899.2, Affy_ID 178376_s_at",4.028
same,Fold Change,"upregulated gene ZK1058.6, Affy_ID 188607_at",45.3463
same,Fold Change,"upregulated gene ZK1251.2, Affy_ID 188538_at",5.974
same,Fold Change,"upregulated gene ZK1290.8, Affy_ID 184676_s_at",4.32
